Test [1] is described as follows: DPPH scavenging ability test (active organic radical species scavenging ability). The arrangement: key to DPPH test: +: effective; −: >10 mM. The note with it: for IC50: percent decrease in OD at 550 nm, 400 μM DPPH in ethanol. As for the experimental part:
The ability of the derivatives obtained in preparation processes A and B to scavenge 2,2-diphenyl-1-picrylhydrazyl (DPPH) (active organic radical species scavenging ability) was measured by the following method.
Trolox® and the test compounds were individually dissolved in ethanol and the solutions were adjusted to a final concentration of 10 mM. Next, each solution was diluted severalfold to obtain solutions at concentrations ranging from 10 mM to 1 μM.
100 μl of each of the obtained ethanol solutions was added to a multi-well ELISA plate along with 100 μl of 400 μM DPPH solution in ethanol. The absorbance (optical density, OD) at 550 nm was measured for these solutions.
DPPH scavenging ability was determined for each test compound based on the results of these measurements. For comparison, the test compound solutions in ethanol were substituted with ethanol alone.
The scavenging ability of each test compound is presented as a percent decrease in OD with respect to the absorbance of the comparative sample.
A general note: The DPPH test is a chemical assay of radical scavenging.

Test [2] can be described thus: OH radical scavenging ability test (ABTS scavenging assay, Fenton reaction). The arrangement: key to OH test: +: effective; −: >10 mM. The note with it: for IC50: ABTS competition, OD at 405 nm, 45 minutes at room temperature. As for the experimental part: Hydroxyl radical scavenging ability was measured for derivatives obtained in preparation processes A, B, and E by the following method using an ABTS (2,2′-azinobis(3-ethylbenzthiazolin-6-sulfonic acid)) scavenging assay.
In this test, hydroxyl radicals were generated in situ by the Fenton reaction. Next, competitive reactions between ABTS and the test compounds took place, and the hydroxyl radicals were scavenged by ABTS to form ABTS^+ radical cations, or were scavenged by the test compounds.
The test compounds and Trolox® were individually dissolved in ethanol and the solutions were adjusted to a final concentration of 10 mM. Each solution was then diluted severalfold to obtain solutions at concentrations ranging from 10 mM to 1 μM.
Next, 180 μl of 1:1 ethanol-water solution was added to a multi-well ELISA plate, and then 30 μl of 1 mM aqueous ABTS solution, 30 μl of 0.5 mM aqueous Fe2SO4 solution, 30 μl of a solution of each test compound in ethanol, and 30 μl of 100 mM aqueous hydrogen peroxide solution were added. The obtained solutions were left to stand for 45 minutes at room temperature, and the absorbance (OD) at 405 nm was measured. OH radical scavenging ability was determined for each test compound based on the results of these measurements. For comparison, the test compound solutions in ethanol were substituted with ethanol alone.

Test [3] deals with E15 neurons. Briefly: Axonal growth in primary culture of CNS neurons (morphometric analysis). It is filed as cell-based, mouse. As for the experimental part:
Fetal mouse (15 days old) cerebral hemispheres were dissected in cold Gey's balanced salt solution supplemented with glucose to isolate the neocortex. Cells were dispersed by trypsin and mechanical dissociation. Next, the cells were plated at a concentration of 200,000 cells/well onto cover slips coated with 1 μg/ml of poly-L-lysine, and the cells were cultured in a serum-containing medium (Dulbecco's modified Eagle medium, 2 mM glutamine, 1 g/l glucose, 10% fetal calf serum, and penicillin/streptomycin) in 5% CO2 at 37° C. for 24 hours.
On day 2, the medium was substituted with a chemically defined medium (Dulbecco's modified Eagle medium, 2 mM glutamine, 1 g/l glucose, 16 μg/ml putrescine, 52 ng/ml selenium, 10 μg/ml holotransferrin, 5 μg/ml insulin, and 3 ng/ml progesterone), and test compounds were added at different concentrations. The cells were cultured in 5% CO2 at 37° C. for 24 hours.
On day 3, the cells were fixed with 4% formaldehyde in phosphate buffered saline (PBS) for ten minutes. After two washes with PBS, permeation of cells was performed with 100% methanol for five minutes. […]
Photographs were randomly taken (×20 magnification) using an Axiovert 200 microscope (Zeiss) equipped with a digital camera. The axonal length of each neuron was determined using a computer-assisted image analyzer (UTHSCSA Image Tool 3.0).

In test [4] the test system is E15 neurons. The note with it: J. Neurochem., 90 (6), 1423-31, 2004; cited from earlier work.
[5] abbreviates: read-out: IC50, OH radical scavenging ability.
Where [6] appears, read: read-out: IC50 (μM), OH radical scavenging ability.

Entries after “also recorded” stand apart in the source; their conditions may differ.

As usually defined, the IC50 is the concentration that gives 50% inhibition. For the compound `COc1ccc(OC)c(CCCCCCCCCCCCO)c1` [Synthesis Example A-(5), 12-(2,5-dimethoxyphenyl)dodecan-1-ol], the DPPH test result in test [1] (Table 3, formula (1) compounds) is “− (−: >10 mM)”. The IC50 in test [1] is over 10 mM; in test [2] (setting [5]), over 10000 µM. Besides, the OH test entry in test [2] (Table 3, formula (1) compounds) is “− (−: >10 mM)”.

Turning to `COc1ccc(OC)c(CCCCCCCCCCCCCCO)c1` [Synthesis Example A-(6), 14-(2,5-dimethoxyphenyl)tetradecan-1-ol], in test [1] (Table 3, formula (1) compounds), the DPPH test entry is recorded as “− (−: >10 mM)”. Besides, the OH test entry in test [2] (Table 3, formula (1) compounds) is “− (−: >10 mM)”.

`COc1ccc(OC)c(CCCCCCCCCCCCCCCO)c1` [Synthesis Example A-(7), 15-(2,5-dimethoxyphenyl)pentadecan-1-ol]: the DPPH test entry in test [1] (Table 3, formula (1) compounds) is “− (−: >10 mM)”. Also, the OH test result in test [2] (Table 3, formula (1) compounds) is “− (−: >10 mM)”. For the same compound, in the test with E15 neurons [3] (24 hours with compound, listed as QFA15), the “axonal growth-promoting activity (in words)” value was “the most active compound; also recorded: greater axonal growth-promoting ability at a lower concentration; also recorded: effective axonal growth-promoting agent”. In the test on E15 neurons [3] (control 85 μM, the values are: axonal length), this compound had an axonal growth-promoting effect, value of FIG. 4 micrographs of 155 µm.

Turning to `COc1ccc(OC)c(CCCCCCCCCCCCCCCCO)c1` [Synthesis Example A-(8), 16-(2,5-dimethoxyphenyl)hexadecan-1-ol], the DPPH test entry in test [1] (Table 3, formula (1) compounds) is listed as “− (−: >10 mM)”. For the same compound, the OH test result in test [2] (Table 3, formula (1) compounds) is on record as “− (−: >10 mM)”.

Regarding `COc1ccc(OC)c(CCCCCCCCCCCCCCCCCCO)c1` [Synthesis Example A-(9), 18-(2,5-dimethoxyphenyl)octadecan-1-ol], the DPPH test result in test [1] (Table 3, formula (1) compounds) is “− (−: >10 mM)”. Further, the IC50 in test [1] is over 10 mM; in test [2] (setting [5]) it was over 10000 µM. Further, the OH test result in test [2] (Table 3, formula (1) compounds) is listed as “− (−: >10 mM)”.

Take `COc1cc(OC)c(OC)cc1CCCCCCCCCCCCCCO` [Synthesis Example B-(13), 14-(2,4,5-trimethoxyphenyl)tetradecan-1-ol]: in test [1] (Table 3, formula (1) compounds), the DPPH test result is recorded as “− (−: >10 mM)”.

As to `COc1cc(OC)c(OC)cc1CCCCCCCCCCCCO` [Synthesis Example B-(14), 12-(2,4,5-trimethoxyphenyl)dodecan-1-ol], the DPPH test entry in test [1] (Table 3, formula (1) compounds) is on record as “− (−: >10 mM)”. The IC50 in test [1] is over 10 mM; in test [2] (setting [6]), 720 µM.

In the case of `COc1cc(OC)c(OC)cc1CCCCCCCCCCCCCCCO` [Synthesis Example B-(15), 15-(2,4,5-trimethoxyphenyl)pentadecan-1-ol], in test [1] (Table 3, formula (1) compounds), the DPPH test result is on record as “− (−: >10 mM)”.

With `COc1cc(OC)c(OC)cc1CCCCCCCCCCCCCCCCO` [Synthesis Example B-(16), 16-(2,4,5-trimethoxyphenyl)hexadecan-1-ol], in test [1] (Table 3, formula (1) compounds), the DPPH test result is “− (−: >10 mM)”.

Take `COc1cc(OC)c(OC)cc1CCCCCCCCCCCCCCCCCCO` [Synthesis Example B-(17), 18-(2,4,5-trimethoxyphenyl)octadecan-1-ol]: the DPPH test result in test [1] (Table 3, formula (1) compounds) is “− (−: >10 mM)”. The IC50 was over 10 mM in test [1] and 720 µM in test [2] (setting [6]).

As for `COc1ccc(OC)c(NCCCCCCCCCCCCCCCCO)c1` [Synthesis Example C-(21), 16-(2,5-dimethoxyphenylamino)hexadecan-1-ol], in test [1] (Table 4, formula (2) compounds), the DPPH test result is “− (−: >10 mM)”. Moreover, the OH test result in test [2] (Table 4, formula (2) compounds) is “− (−: >10 mM)”.

As for `COc1ccc(OC)c(NCCCCCCCCCCCCCCO)c1` [Synthesis Example C-(22), 14-(2,5-Dimethoxyphenylamino)tetradecan-1-ol], the DPPH test result in test [1] (Table 4, formula (2) compounds) is recorded as “− (−: >10 mM)”. Further, the OH test result in test [2] (Table 4, formula (2) compounds) was “− (−: >10 mM)”.

As for `COc1ccc(OC)c(NCCCCCCCCCCCCO)c1` [Synthesis Example C-(23), 12-(2,5-Dimethoxyphenylamino)dodecan-1-ol], the DPPH test entry in test [1] (Table 4, formula (2) compounds) was “− (−: >10 mM)”. The OH test result in test [2] (Table 4, formula (2) compounds) is “− (−: >10 mM)”.

For the compound `COc1ccc(OC)c(NCCCCCCCCCCO)c1` [Synthesis Example C-(24), 10-(2,5-Dimethoxyphenylamino)decan-1-ol], the DPPH test entry in test [1] (Table 4, formula (2) compounds) is on record as “− (−: >10 mM)”. Also, the OH test entry in test [2] (Table 4, formula (2) compounds) is given as “− (−: >10 mM)”.

Regarding `COc1ccc(OC)c(OCCCCCCCCCCCCO)c1` [Synthesis Example D-(29), 12-(2,5-dimethoxyphenoxy)dodecan-1-ol], the DPPH test entry in test [1] (Table 4, formula (2) compounds) is reported as “− (−: >10 mM)”. Besides, the OH test result in test [2] (Table 4, formula (2) compounds) is “− (−: >10 mM)”.

`COc1ccc(OC)c(OCCCCCCCCCCCCCCCCO)c1` [Synthesis Example D-(30), 16-(2,5-dimethoxyphenoxy)hexadecan-1-ol]: the DPPH test result in test [1] (Table 4, formula (2) compounds) is on record as “− (−: >10 mM)”. In test [2] (Table 4, formula (2) compounds), the OH test entry is “− (−: >10 mM)”.

For `OCCCCCCCCCCCCc1cc(O)ccc1O` [Synthesis Example E-(31), 2-(12-hydroxydodecyl)benzene-1,4-diol], the values for the IC50 in test [1] and in test [2] (setting [6]) were 0.23 mM and 6 µM, respectively.

`OCCCCCCCCCCCCCCCCCCc1cc(O)ccc1O` [Synthesis Example E-(32), 2-(18-hydroxyoctadecyl)benzene-1,4-diol]: the IC50 in test [1] amounted to 0.23 mM; in test [2] (setting [6]) it was 6 µM.

For `CCCCCCCCCCCCCCCCc1cc(O)ccc1O` [Synthesis Example E-(33), 2-hexadecylbenzene-1,4-diol], the DPPH test entry in test [1] (Table 4, formula (2) compounds) is given as “+”. The IC50 in test [1] worked out at 1.53 mM. Further, the OH test entry in test [2] (Table 4, formula (2) compounds) was “+”.

With `OCCCCCCCCCCCCCCCc1cc(O)ccc1O` [Synthesis Example E-(34), 2-(15-hydroxypentadecyl)benzene-1,4-diol], the values for the IC50 in test [1] and in test [2] (setting [6]) were 0.23 mM and 6 µM, respectively.

Take `Cc1c(C)c2c(c(C)c1O)CCC(C)(C(=O)O)O2` (stereo not shown) [Trolox ®, reference compound]: the values for the IC50 in test [1] and in test [2] (setting [6]) were 0.23 mM and 600 µM, respectively.

Take `CC1=C(CCCCCCCCCCCCCCCO)C(C)(C)CCC1=O` [tCFA15, 3-(15-hydroxypentadecyl)-2,4,4-trimethyl-2-cyclohexen-1-one]: the “axonal growth-promoting activity in a previous study (in words)” value in the test with E15 neurons [4] is recorded as “showed similar results”.
